Laboratory results from patent publication US12071434B2, “Heterocyclic compound” (Takeda Pharmaceutical Company Limited, priority 2018, dated 2024).

molecular target: T1, human orexin type 2 receptor (Homo sapiens, UniProt O43614); test: Measurement of orexin type 2 receptor agonist activity (calcium fluorescence, Fluo-4 AM, FDSS) in CHO cells forcibly expressing human OX2 receptor; assay type: cell-based; conditions: test compound 3 μM, DMSO = 0%, orexin A (human) 10 nM = 100%
T1 construct: expressed in transfected cells
T1 sequence (O43614 1-444): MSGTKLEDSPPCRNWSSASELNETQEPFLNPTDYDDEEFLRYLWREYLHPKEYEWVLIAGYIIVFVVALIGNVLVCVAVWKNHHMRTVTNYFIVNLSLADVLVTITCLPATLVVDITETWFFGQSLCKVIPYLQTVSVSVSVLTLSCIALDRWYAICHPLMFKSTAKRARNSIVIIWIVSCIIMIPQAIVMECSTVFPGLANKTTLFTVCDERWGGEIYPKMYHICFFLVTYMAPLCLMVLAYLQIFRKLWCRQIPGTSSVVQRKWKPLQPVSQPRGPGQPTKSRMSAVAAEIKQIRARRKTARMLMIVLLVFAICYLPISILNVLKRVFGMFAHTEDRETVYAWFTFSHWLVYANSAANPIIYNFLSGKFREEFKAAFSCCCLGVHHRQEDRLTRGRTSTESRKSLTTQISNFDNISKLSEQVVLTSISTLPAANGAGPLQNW
Description: To obtain a cell clone stably expressing human orexin type 2 receptor, human orexin type 2 receptor cDNA was inserted into pcDNA3.1(+) plasmid vector (Invitrogen), and a plasmid DNA for expression of human orexin type 2 receptor (pcDNA3.1(+)/hOX2R) was cloned. The plasmid DNA was introduced into CHO-dhfr cell by an electroporation method, and human orexin type 2 receptor expressing clone cells were obtained by limiting dilution method by using G418 drug resistance as a selection marker.
CHO cells forcibly expressing human OX2 receptor were seeded in each well of 384 well black transparent bottom plate (BD Falcon) at 7,500 cells/well, and cultured for one day in a 5% CO2 incubator at 37° C. After removal of the medium in the cell plate, assay buffer A containing a calcium indicator (HBSS (Thermo Fisher Scientific), 20 mM HEPES (Thermo Fisher Scientific), 0.1% BSA (Sigma-Aldrich), 2.5 μg/mL Fluo-4 AM (DOJINDO Chemical), 0.08% Pluronic F127 (DOJINDO Chemical), 1.25 mM probenecid (DOJINDO Chemical)) was added at 30 μL/well. The plate was stood for 30 min in a 5% CO2 incubator at 37° C., and further stood at room temperature for 30 min. A test compound prepared by diluting with assay buffer B (HBSS, 20 mM HEPES, 0.1% BSA) was added at 10 μL/well, and the fluorescence value was measured by FDSSpCELL (Hamamatsu Photonics K.K.) every one sec for 1 min, and thereafter every two sec for 1 min 40 sec. The activity (%) of the test compound was calculated assuming that variation in the fluorescence value when DMSO was added instead of the test compound was 0%, and variation in the fluorescence value when orexin A (human) (PEPTIDE INSTITUTE, INC.) was added at the final concentration of 10 nM was 100%.

0X2R agonist activity (3 μM, %) | Structure (SMILES)
95% | CC(C)n1cnc2c(c1=O)[C@@H](Cc1cccc(-c3ccccc3)c1)[C@@H](NS(C)(=O)=O)CC2 (relative stereo) [Example 99, rel-N-[(5R,6S)-5-[([1,1′-biphenyl]-3-yl)methyl]-4-oxo-3-(propan-2-yl)-3,4,5,6,7,8-hexahydroquinazolin-6-yl]methanesulfonamide]
111% | CC(C)n1cnc2c(c1=O)[C@@H](Cc1cccc(-c3ccccc3)c1)[C@@H](NS(=O)(=O)C1CC1)CC2 (racemic) [Example 134, rac-N-[(5R,6S)-5-[([1,1′-biphenyl]-3-yl)methyl]-4-oxo-3-(propan-2-yl)-3,4,5,6,7,8-hexahydroquinazolin-6-yl]cyclopropanesulfonamide]
106% | CCS(=O)(=O)NC1CCc2ccc(C)c(=O)n2C1Cc1cccc(-c2ccccc2)c1 (racemic) [Example 11, rac-N-{(3S,4S)-4-[([(1,1′-biphenyl]-3-yl)methyl]-7-methyl-6-oxo-1,3,4,6-tetrahydro-2H-quinolizin-3-yl}ethanesulfonamide]
85% | CC(C)n1cnc2c(c1=O)[C@@H](Cc1cccc(-c3cc(F)cc(F)c3)c1)[C@@H](NS(=O)(=O)C1CC1)CC2 [Example 175, N-[(5R,6S)-5-[(3′,5′-difluoro[1,1′-biphenyl]-3-yl)methyl]-4-oxo-3-(propan-2-yl)-3,4,5,6,7,8-hexahydroquinazolin-6-yl]cyclopropanesulfonamide]
89% | Cc1cnc2n(c1=O)[C@@H](Cc1cccc(-c3ccccc3)c1)[C@@H](NS(C)(=O)=O)CC2 (racemic) [Example 94, rac-N-{(6S,7S)-6-[([1,1′-biphenyl]-3-yl)methyl]-3-methyl-4-oxo-6,7,8,9-tetrahydro-4H-pyrido[1,2-a]pyrimidin-7-yl}methanesulfonamide]

Continued, compound first:

Structure (SMILES) | 0X2R agonist activity (3 μM, %)
CC(C)(O)c1ccc2n(c1=O)[C@@H](Cc1cccc(-c3ccccc3)c1)[C@@H](NS(C)(=O)=O)CC2 (racemic) [Example 33, rac-N-[(3S,4S)-4-[([1,1′-biphenyl]-3-yl)methyl]-7-(2-hydroxypropan-2-yl)-6-oxo-1,3,4,6-tetrahydro-2H-quinolizin-3-yl]methanesulfonamide] | 87%
[2H]C([2H])([2H])C([2H])(n1cnc2c(c1=O)C(Cc1cccc(-c3ccccc3)c1F)C(NS(=O)(=O)C1(F)CC1)CC2)C([2H])([2H])[2H] [Example 213, rel-1-fluoro-N-{(5S,6R)-5-[(2-fluoro[1,1′-biphenyl]-3-yl)methyl]-4-oxo-3-[(~2~H_7_)propan-2-yl]-3,4,5,6,7,8-hexahydroquinazolin-6-yl}cyclopropane-1-sulfonamide] | 105%
CS(=O)(=O)N[C@H]1CCc2c(Cl)nc(Cl)c(=O)n2[C@H]1Cc1cccc(-c2ccccc2)c1 (racemic) [Example 61, rac-N-{(6S,7S)-6-[([1,1′-biphenyl]-3-yl)methyl]-1,3-dichloro-4-oxo-6,7,8,9-tetrahydro-4H-pyrido[1,2-a]pyrazin-7-yl}methanesulfonamide] | 51%
CC1OC[C@@H]2CC[C@H](NS(C)(=O)=O)[C@H](Cc3cccc(-c4cccc(F)c4)c3)N2C1=O (relative stereo) [Example 140, rel-N-{(6S,7S,9aS)-6-[(3′-fluoro[1,1′-biphenyl]-3-yl)methyl]-3-methyl-4-oxooctahydropyrido[2,1-c][1,4]oxazin-7-yl}methanesulfonamide] | 94%
CC(C)n1cnc2c(c1=O)[C@@H](Cc1cccc(-c3cccc(F)c3F)c1F)[C@@H](NS(=O)(=O)CF)CC2 [Example 196, 1-fluoro-N-{(5R,6S)-4-oxo-3-(propan-2-yl)-5-[(2,2′,3′-trifluoro[1,1′-biphenyl]-3-yl)methyl]-3,4,5,6,7,8-hexahydroquinazolin-6-yl}methanesulfonamide] | 91%
